Assay results from US10537550B2, “Methods of treating underlying inflammation from COPD or asthma” (MEDA PHARMA GMBH & CO. KG, priority 2004, dated 2020).
Like-named read-outs stand apart in the source and are kept apart here.

How the values were obtained:
[1] = test system: pulmonary M1 and M3 muscarinic receptor subtypes; conditions: following inhalation of single doses; cited from earlier work
[2] = test system: TNFα release from human peripheral blood mononuclear cells (PBMCs); experiment: LPS-induced TNFα release from human PBMCs/monocytes (sandwich ELISA); format: cell-based; conditions: LPS 1 μg/ml; for IC50: Homo sapiens, PBMC, read-out: IC50 of inhibition of TNFα release
Description: The influence of R,R-glycopyrrolate in combination with glucocorticoids on TNFα release was investigated by using human peripheral blood mononuclear cells (PBMCs). The study was approved by our institutional Ethics Committee according to the International Declarations of Helsinki and Tokyo. PBMCs were isolated from heparinized blood samples of healthy donors by density gradient centrifugation. An equal volume of Hanks buffer (Life Technologies, Heidelberg, Germany) is added to heparinized whole blood samples. 15 ml Histopaque-1077 (Sigma, Deisenhofen, Germany) are overlayed with a maximum of 40 ml of blood/Hanks mixture were centrifuged for 30 min at room temperature (2000 rpm). A visible band containing PBMCs is transferred to a fresh tube and washed twice with Hanks-buffer. Finally cells are seeded in RPMI 1640 Medium (Life Technologies, Heidelberg, Germany) with Glutamax I (Gibco BRL, Eggenstein) and 10% FCS (Boehringer Mannheim, Penzberg, Germany). After isolated, PBMCs were cultured in RPMI 1640 medium supplemented with 10% fetal calf serum (FCS) at 37° C. 5% CO2 overnight. Monocytes were isolated from other cells by adherence method, non-adherent cells were removed by changing the medium. Cells are re-suspended at 10^6 cells/ml and incubated in 500 μl volumes in 24-well tissue culture plates (Falcon Becton Dickinson Labware) at 37° C., 5% CO2. After pre-incubation with test substances (0.5 μl/500 μl medium) for 30 min, cells were stimulated with lipopolysaccharide (LPS) (1 μg/ml). At indicated times cells were sedimented by centrifugation, the supernatants were harvested and kept frozen at −80° C. until protein determination; the cells were lysed by RLT lysis Buffer (Qiagen, Hilden, Germany) and frozen at −80° C. until analysis. […] Plates are read at 450 nm (reference 570 nm) in a microplate reader (Dynatech). The results are expressed as a percentage of the control level of cytokines production by cells stimulated in the absence of the compound.

[3] = in vivo; cited from earlier work

Question: For `C[N+]1(C)[C@@H]2C[C@@H](OC(=O)C(O)(c3cccs3)c3cccs3)C[C@H]1[C@@H]1O[C@@H]12` [Tiotropium], which duration of bronchodilation [1] is on record?
Answer: Its duration of bronchodilation is 24 h.

Question: For `C[N+]1(C)CC[C@@H](OC(=O)[C@](O)(c2ccccc2)C2CCCC2)C1.[Br-]` [R,R-glycopyrrolate], which “influence on LPS-induced TNFα release” value ([2]; alone, up to 10 μmol/l, human monocytes) is on record?
Answer: The value was “did not influence”.

Question: With `CCCC1O[C@@H]2C[C@H]3[C@@H]4CCC5=CC(=O)C=C[C@]5(C)[C@H]4[C@@H](O)C[C@]3(C)[C@]2(C(=O)CO)O1` (some centres unmarked) [budesonide] as the compound, how does the IC50 ([2]; budesonide alone, human monocytes) read?
Answer: Its IC50 is 550 ± 130 pM.

Question: And the IC50 ([2]; simultaneous addition of 10 μmol/l R,R-glycopyrrolate, p=0.0251)?
Answer: The IC50 was 130 ± 30 pM.

Question: With `C[C@@H]1C[C@H]2[C@@H]3C[C@H](F)C4=CC(=O)C=C[C@]4(C)[C@@]3(F)[C@@H](O)C[C@]2(C)[C@@]1(O)C(=O)SCF` [fluticasone] as the compound, how does the oral bioavailability [3] read?
Answer: Its oral bioavailability is under 1%.
